Assay results published in the Kinase Knowledgebase extract (Sharma et al. 2016).
Where “and” joins values, the source holds several entries; their conditions need not be identical. Equal entries are not always repeated.

Tests used:
MAPK14 (human) = MAPK14 (human) (UniProt Q16539); experiment: LPS-induced TNF-alpha Release Inhibition (Human Blood)
MAPK14 = MAPK14 (UniProt Q16539); experiment: p38-alpha Kinase Inhibition
MAPK14 (rat) [1] = system: MAPK14 (rat)
MAPK14 (rat) [2] = experiment: Secondary Paw Swelling Inhibition (Arthritis Rat)

Chain of MAPK14 (human) (Q16539 whole entry, looked up): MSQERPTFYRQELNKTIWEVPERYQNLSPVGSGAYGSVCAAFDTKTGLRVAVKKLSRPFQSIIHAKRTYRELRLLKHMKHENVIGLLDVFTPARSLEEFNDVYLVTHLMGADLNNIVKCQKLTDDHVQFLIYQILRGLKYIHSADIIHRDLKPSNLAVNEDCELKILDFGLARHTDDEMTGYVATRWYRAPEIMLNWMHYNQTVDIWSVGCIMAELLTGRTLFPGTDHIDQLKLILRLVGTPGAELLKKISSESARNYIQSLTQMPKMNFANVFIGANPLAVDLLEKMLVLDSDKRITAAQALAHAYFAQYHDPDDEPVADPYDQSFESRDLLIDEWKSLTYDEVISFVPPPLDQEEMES
Chain of MAPK14 (Q16539 whole entry, looked up): as above

| Structure (SMILES) | IC50 (MAPK14 (human)) | other results |
| --- | --- | --- |
| COc1ccc(CNc2nccc(-c3[nH]c(C4CCNCC4)nc3-c3cccc(C(F)(F)F)c3)n2)cc1 | 290 nM | – |
| C[C@H](Nc1nccc(-c2nc(C3CCNCC3)n(C)c2-c2cccc(C(F)(F)F)c2)n1)c1ccccc1 | 24000 nM | – |
| Fc1ccc(-c2nc(C3CCCNC3)[nH]c2-c2ccncc2)cc1 (stereo not given) | 585 nM | – |
| COc1ccc(CNc2nccc(-c3[nH]c(-c4ccccc4)nc3-c3ccccc3)n2)cc1 | > 100000 nM | – |
| Fc1ccc(-c2nc[nH]c2-c2ccncc2)cc1 | > 10000 nM | – |
| CNc1nccc(-c2[nH]c(-c3ccccc3)nc2-c2ccccc2)n1 | > 100000 nM | – |
| c1ccc(-c2nc(-c3ccccc3)c(-c3ccncn3)[nH]2)cc1 | > 100000 nM | – |
| Nc1nccc(-c2[nH]c(-c3ccccc3)nc2-c2ccccc2)n1 | > 100000 nM | – |
| FC(F)(F)c1cccc(-c2nc(-c3ccccc3)[nH]c2-c2ccncc2)c1 | > 100000 nM | – |
| C[C@H](Nc1cc(-c2c(-c3cccc(C(F)(F)F)c3)nc(C3CCNCC3)n2C)ccn1)c1ccccc1 | – | ID50 (MAPK14 (rat) [1]): 17.5 mg/kg/day; ED50 (MAPK14 (rat) [2]): 8.2 mg/kg/day; inhibition (MAPK14 (rat) [2]; dose or concentration not given here): 76% |
| COc1ccc2c(c1)c(CC(=O)O)c(C)n2C(=O)c1ccc(Cl)cc1 | – | score (MAPK14 (rat) [2]): 5.5 and 4.9 |

The remaining molecules from weak to strong by IC50 (MAPK14 (human)), led by results:

| IC50 (MAPK14 (human)) | Structure (SMILES) | other results |
| --- | --- | --- |
| 190 nM | Nc1nccc(-c2[nH]c(C3CCNCC3)nc2-c2cccc(C(F)(F)F)c2)n1 | – |
| 175 nM | Fc1ccc(-c2nc(C3CCNCC3)[nH]c2-c2ccncc2)cc1 | – |
| 34 nM | Fc1ccc(-c2nc(C3CCCCC3)[nH]c2-c2ccncc2)cc1 | – |
| 6 nM | C[C@H](Nc1nccc(-c2[nH]c(-c3ccccc3)nc2-c2cccc(C(F)(F)F)c2)n1)c1ccccc1 | IC50 (MAPK14): 0.75 nM |
| 0.4 nM | C[C@@H](Nc1nccc(-c2[nH]c(-c3ccccc3)nc2-c2cccc(C(F)(F)F)c2)n1)c1ccccc1 | IC50 (MAPK14): 0.97 nM |
